# The source made the active and inactive calls. The rule behind the calls is not given here.
# Legend:
# [1] = Cytotoxicity against C57BL/6 mouse primary peritoneal macrophages assessed as reduction in cell viability at 10 uM after 24 hrs by MTT assay; assay type: cell-based; conditions: peritoneal macrophage cell
# [2] = molecular target: T1, Lymphocyte antigen 96 (Mus musculus) (UniProt Q9JHF9); assay: Inhibition of MD2/TLR4 complex formation in C57BL/6 mouse primary peritoneal macrophages assessed as reversal of LPS-induced […] at 10 uM preincubated for 30 mins followed by LPS addition measured after 1 hr by DAPI staining based fluorescence microscopic analysis
# T1 sequence (whole entry): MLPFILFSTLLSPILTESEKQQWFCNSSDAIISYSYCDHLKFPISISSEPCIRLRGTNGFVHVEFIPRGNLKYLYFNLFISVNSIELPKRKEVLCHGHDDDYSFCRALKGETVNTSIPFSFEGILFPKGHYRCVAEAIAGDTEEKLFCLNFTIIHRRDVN
# [3] = molecular target: T2, Lymphocyte antigen 96 (Homo sapiens) (UniProt Q9Y6Y9); assay: Binding affinity to recombinant human MD2 (17 to 160 residues) expressed in Escherichia coli BL21(DE3) cells at 6.25 to 100 uM by surface plasmon resonance analysis
# T2 sequence (whole entry): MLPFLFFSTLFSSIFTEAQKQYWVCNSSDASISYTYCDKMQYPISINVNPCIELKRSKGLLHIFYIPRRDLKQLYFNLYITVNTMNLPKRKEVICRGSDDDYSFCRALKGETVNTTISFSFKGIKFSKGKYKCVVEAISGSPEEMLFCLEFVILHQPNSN
# [4] = Cmax in Sprague-Dawley rat plasma at 10 mg/kg, iv measured immediately post treatment by UPLC analysis; assay type: ADME, organism-based; parameters: dose 10 mg/kg, route intravenous
# [5] = Cmax in Sprague-Dawley rat plasma at 10 mg/kg, iv after 24 hrs by UPLC analysis; assay type: ADME, organism-based; parameters: dose 10 mg/kg, route intravenous
# [6] = molecular target: Mitogen-activated protein kinase 3 (Homo sapiens) (UniProt P27361); assay: Inhibition of full length recombinant human N-terminal GST-tagged ERK1 (1 to 379 residues) expressed in Escherichia coli using modified erktide as substrate at 0.05 to 50 uM after 1 hr by microfluidic assay
# Mus musculus [7] = assay: (§1) Antiinflammatory activity in acute lung injury C57BL/6 mouse model assessed as inhibition of LPS-induced IL-6 mRNA expression in lung tissues at 20 mg/kg, po treated 15 mins before LPS challenge measured after 6 hrs; assay type: functional, organism-based
# Mus musculus [8] = assay: Antiinflammatory activity in acute lung injury C57BL/6 mouse model assessed as inhibition of LPS-induced thickening of alveolar wall at 20 mg/kg, po treated 15 mins before LPS challenge measured after 6 hrs by hematoxylin and eosin staining based light microscopic analysis; assay type: functional, organism-based
# Mus musculus [9] = assay: Antiinflammatory activity in acute lung injury C57BL/6 mouse model assessed as inhibition of LPS-induced increase in protein concentration in bronchoalveolar lavage fluid at 20 mg/kg, po treated 15 mins before LPS challenge measured after 6 hrs; assay type: functional, organism-based
# [10] = molecular target: Mitogen-activated protein kinase 9 (Homo sapiens) (UniProt P45984); assay: Inhibition of recombinant human N-terminal GST-tagged JNK2 catalytic domain (1 to 364 residues) expressed in Escherichia coli using modified erktide as substrate at 0.05 to 50 uM after 1 hr by microfluidic assay
# Mus musculus [11] = assay: Antiinflammatory activity in acute lung injury C57BL/6 mouse model assessed as inhibition of LPS-induced TNF-alpha mRNA expression in lung tissues at 20 mg/kg, po treated 15 mins before LPS challenge measured after 6 hrs; assay type: functional, organism-based
# Mus musculus [12] = assay: Antiinflammatory activity in acute lung injury C57BL/6 mouse model assessed as inhibition of LPS-induced increase in neutrophil level in bronchoalveolar lavage fluid at 20 mg/kg, po treated 15 mins before LPS challenge measured after 6 hrs by wright-gimesa staining based assay; assay type: functional, organism-based
# [13] = molecular target: Toll-like receptor 4 (Homo sapiens) (UniProt O00206); assay: Binding affinity to recombinant human TLR4 at 6.25 to 100 uM by surface plasmon resonance analysis
# Mus musculus [14] = assay: Antiinflammatory activity in acute lung injury C57BL/6 mouse model assessed as inhibition of LPS-induced increase in total cells in bronchoalveolar lavage fluid at 20 mg/kg, po treated 15 mins before LPS challenge measured after 6 hrs by cell counting method; assay type: functional, organism-based
# [15] = Cmax in Sprague-Dawley rat plasma at 20 mg/kg, po measured immediately post treatment by UPLC analysis; assay type: ADME, organism-based; parameters: dose 20 mg/kg, route oral
# Mus musculus [16] = assay: Antiinflammatory activity in LPS-induced septic shock C57BL/6 mouse model assessed as mouse survival at 10 mg/kg, iv treated 15 mins before LPS challenge measured for 7 days relative to control; assay type: functional; conditions: C57BL/6, iv
# Mus musculus [17] = assay: Antiinflammatory activity in acute lung injury C57BL/6 mouse model assessed as inhibition of LPS-induced interstitial edema at 20 mg/kg, po treated 15 mins before LPS challenge measured after 6 hrs by hematoxylin and eosin staining based light microscopic analysis; assay type: functional, organism-based
# [18] = molecular target: Mitogen-activated protein kinase 14 (Homo sapiens) (UniProt Q16539); assay: Inhibition of recombinant human N-terminal GST-tagged p38-alpha (9 to 352 residues) expressed in Escherichia coli using modified erktide as substrate at 0.05 to 50 uM after 1 hr by microfluidic assay
# [19] = molecular target: T3, Inhibitor of nuclear factor kappa-B kinase subunit beta (Homo sapiens) (UniProt O14920); assay: Inhibition of recombinant human N-terminal His-tagged IKKbeta (1 to 662 residues) expressed in baculovirus expression system using modified IkBalpha-derived peptide as substrate at 0.05 to 50 uM after 1 hr by microfluidic assay
# T3 sequence (whole entry): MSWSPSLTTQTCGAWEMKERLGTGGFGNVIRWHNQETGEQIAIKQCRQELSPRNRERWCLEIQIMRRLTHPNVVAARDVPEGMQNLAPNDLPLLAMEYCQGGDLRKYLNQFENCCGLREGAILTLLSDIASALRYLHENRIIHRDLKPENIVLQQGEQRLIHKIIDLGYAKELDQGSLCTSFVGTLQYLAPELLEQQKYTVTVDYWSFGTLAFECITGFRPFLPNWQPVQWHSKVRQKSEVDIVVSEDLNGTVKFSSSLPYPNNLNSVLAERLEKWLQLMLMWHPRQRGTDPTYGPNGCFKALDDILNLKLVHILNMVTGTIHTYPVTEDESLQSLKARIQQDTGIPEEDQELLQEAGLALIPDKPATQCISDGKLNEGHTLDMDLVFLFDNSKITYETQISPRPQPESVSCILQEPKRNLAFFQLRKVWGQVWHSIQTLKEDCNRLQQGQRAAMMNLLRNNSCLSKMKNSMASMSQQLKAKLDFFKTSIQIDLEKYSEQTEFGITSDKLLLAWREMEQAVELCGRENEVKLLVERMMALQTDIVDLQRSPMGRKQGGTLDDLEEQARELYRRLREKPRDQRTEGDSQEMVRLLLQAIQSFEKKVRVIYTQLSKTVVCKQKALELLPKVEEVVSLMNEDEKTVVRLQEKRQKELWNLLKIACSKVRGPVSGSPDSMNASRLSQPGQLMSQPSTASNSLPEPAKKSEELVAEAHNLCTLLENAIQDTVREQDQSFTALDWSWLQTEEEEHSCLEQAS
# Mus musculus [20] = assay: Antiinflammatory activity in acute lung injury C57BL/6 mouse model assessed as inhibition of LPS-induced lung edema at 20 mg/kg, po treated 15 mins before LPS challenge measured after 6 hrs; assay type: functional, organism-based
# Mus musculus [21] = assay: Antiinflammatory activity in acute lung injury C57BL/6 mouse model assessed as inhibition of LPS-induced infiltration of inflammatory cells at 20 mg/kg, po treated 15 mins before LPS challenge measured after 6 hrs by hematoxylin and eosin staining based light microscopic analysis; assay type: functional, organism-based
# Mus musculus [22] = assay: as §1, with “macrophage infilteration by measuring reduction in CD68” for “IL-6 mRNA”, “hrs by DAB staining based immunohistochemical analysis” for “hrs”; assay type: functional, organism-based
# [23] = molecular target: Toll-like receptor 2 (Mus musculus) (UniProt Q9QUN7); assay: Inhibition of TLR2 in mouse RAW264.7 cells assessed as inhibition of Pam3CK-induced IL-6 level at 5 to 10 uM preincubated for 2 hrs followed by Pam3CK addition measured after 12 hrs by ELISA; assay type: cell-based
# [24] = molecular target: Toll-like receptor 2 (Mus musculus) (UniProt Q9QUN7); assay: Inhibition of TLR2 in mouse RAW264.7 cells assessed as inhibition of Pam3CK-induced TNF-alpha level at 5 to 10 uM preincubated for 2 hrs followed by Pam3CK addition measured after 12 hrs by ELISA; assay type: cell-based
# Mus musculus [25] = assay: Antiinflammatory activity in acute lung injury C57BL/6 mouse model assessed as inhibition of LPS-induced IL-1beta mRNA expression in lung tissues at 20 mg/kg, po treated 15 mins before LPS challenge measured after 6 hrs; assay type: functional, organism-based
# Mus musculus [26] = assay: Antiinflammatory activity in acute lung injury C57BL/6 mouse model assessed as inhibition of LPS-induced pulmonary congestion at 20 mg/kg, po treated 15 mins before LPS challenge measured after 6 hrs by hematoxylin and eosin staining based light microscopic analysis; assay type: functional, organism-based
# Mus musculus [27] = assay: Antiinflammatory activity in acute lung injury C57BL/6 mouse model assessed as inhibition of LPS-induced MPO activity in lung tissues at 20 mg/kg, po treated 15 mins before LPS challenge measured after 6 hrs; assay type: functional, organism-based
# Mus musculus [28] = assay: In vivo inhibition of LPS-induced MD2/TLR4 complex formation in lung tissues of acute lung injury C57BL/6 mouse model at 20 mg/kg, po treated 15 mins before LPS challenge measured after 6 hrs by immunoprecipitation assay; assay type: functional, organism-based
# [29] = Cmax in Sprague-Dawley rat plasma at 20 mg/kg, po after 12 hrs by UPLC analysis; assay type: ADME, organism-based; parameters: dose 20 mg/kg, route oral
# [30] = molecular target: Mitogen-activated protein kinase 11 (Homo sapiens) (UniProt Q15759); assay: Inhibition of full length recombinant human N-terminal GST-tagged p38-beta (1 to 364 residues) expressed in Escherichia coli using modified erktide as substrate at 0.05 to 50 uM after 1 hr by microfluidic assay
# Mitogen-activated protein kinase 11 (Homo sapiens), sequence (Q15759 whole entry, the tested form may be a part): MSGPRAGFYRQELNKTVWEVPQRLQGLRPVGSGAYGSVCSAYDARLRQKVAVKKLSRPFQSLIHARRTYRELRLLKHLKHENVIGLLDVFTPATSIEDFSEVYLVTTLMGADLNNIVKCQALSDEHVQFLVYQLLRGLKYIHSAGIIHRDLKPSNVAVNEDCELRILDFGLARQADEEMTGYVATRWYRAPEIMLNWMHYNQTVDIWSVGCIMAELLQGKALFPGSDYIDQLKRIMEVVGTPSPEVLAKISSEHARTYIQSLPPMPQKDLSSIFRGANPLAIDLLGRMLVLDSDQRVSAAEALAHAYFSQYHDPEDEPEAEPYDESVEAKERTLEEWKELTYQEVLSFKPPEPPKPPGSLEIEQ
# Toll-like receptor 2 (Mus musculus), sequence (Q9QUN7 whole entry): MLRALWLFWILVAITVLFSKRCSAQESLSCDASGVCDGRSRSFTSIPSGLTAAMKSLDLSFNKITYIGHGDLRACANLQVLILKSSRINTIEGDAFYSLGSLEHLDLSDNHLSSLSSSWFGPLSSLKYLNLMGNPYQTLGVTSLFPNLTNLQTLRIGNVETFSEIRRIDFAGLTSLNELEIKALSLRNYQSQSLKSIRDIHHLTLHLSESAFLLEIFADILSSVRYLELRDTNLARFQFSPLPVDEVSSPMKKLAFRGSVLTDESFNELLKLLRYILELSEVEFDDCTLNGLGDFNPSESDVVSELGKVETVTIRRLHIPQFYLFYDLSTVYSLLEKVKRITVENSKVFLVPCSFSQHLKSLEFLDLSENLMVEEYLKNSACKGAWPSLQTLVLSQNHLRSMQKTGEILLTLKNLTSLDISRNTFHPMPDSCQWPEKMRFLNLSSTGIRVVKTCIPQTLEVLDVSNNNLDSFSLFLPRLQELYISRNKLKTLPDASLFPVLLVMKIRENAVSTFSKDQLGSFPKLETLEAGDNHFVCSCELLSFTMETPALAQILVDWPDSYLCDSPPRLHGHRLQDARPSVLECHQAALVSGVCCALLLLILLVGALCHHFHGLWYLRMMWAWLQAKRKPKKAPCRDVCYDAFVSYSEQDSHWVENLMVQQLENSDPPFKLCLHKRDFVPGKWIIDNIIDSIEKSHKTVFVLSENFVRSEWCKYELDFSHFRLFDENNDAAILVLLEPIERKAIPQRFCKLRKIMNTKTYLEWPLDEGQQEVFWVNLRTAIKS
# Toll-like receptor 4 (Homo sapiens), sequence (O00206 whole entry): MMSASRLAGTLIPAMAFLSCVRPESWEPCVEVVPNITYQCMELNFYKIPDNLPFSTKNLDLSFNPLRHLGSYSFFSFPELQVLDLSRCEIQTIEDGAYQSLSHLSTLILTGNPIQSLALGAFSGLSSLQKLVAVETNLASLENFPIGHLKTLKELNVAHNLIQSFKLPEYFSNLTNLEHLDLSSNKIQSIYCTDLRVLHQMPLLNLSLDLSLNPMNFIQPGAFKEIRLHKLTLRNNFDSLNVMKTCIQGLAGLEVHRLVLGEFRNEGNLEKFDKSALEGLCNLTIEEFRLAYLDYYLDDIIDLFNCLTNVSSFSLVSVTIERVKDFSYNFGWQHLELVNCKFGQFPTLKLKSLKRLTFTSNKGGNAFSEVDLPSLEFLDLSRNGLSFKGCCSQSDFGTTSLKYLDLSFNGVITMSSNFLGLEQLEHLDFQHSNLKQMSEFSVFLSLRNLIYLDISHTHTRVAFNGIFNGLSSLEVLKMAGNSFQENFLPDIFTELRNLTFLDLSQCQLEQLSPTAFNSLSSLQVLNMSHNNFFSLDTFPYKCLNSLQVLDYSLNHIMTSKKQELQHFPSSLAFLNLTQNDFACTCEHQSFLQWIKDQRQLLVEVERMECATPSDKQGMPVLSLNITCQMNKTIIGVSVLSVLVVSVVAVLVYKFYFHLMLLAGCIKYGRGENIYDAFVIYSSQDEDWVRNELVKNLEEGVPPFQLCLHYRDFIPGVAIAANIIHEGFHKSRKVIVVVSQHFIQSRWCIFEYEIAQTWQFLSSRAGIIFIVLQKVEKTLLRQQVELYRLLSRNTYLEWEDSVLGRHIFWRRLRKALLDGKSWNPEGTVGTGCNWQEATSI
# Mitogen-activated protein kinase 14 (Homo sapiens), sequence (Q16539 whole entry, the tested form may be a part): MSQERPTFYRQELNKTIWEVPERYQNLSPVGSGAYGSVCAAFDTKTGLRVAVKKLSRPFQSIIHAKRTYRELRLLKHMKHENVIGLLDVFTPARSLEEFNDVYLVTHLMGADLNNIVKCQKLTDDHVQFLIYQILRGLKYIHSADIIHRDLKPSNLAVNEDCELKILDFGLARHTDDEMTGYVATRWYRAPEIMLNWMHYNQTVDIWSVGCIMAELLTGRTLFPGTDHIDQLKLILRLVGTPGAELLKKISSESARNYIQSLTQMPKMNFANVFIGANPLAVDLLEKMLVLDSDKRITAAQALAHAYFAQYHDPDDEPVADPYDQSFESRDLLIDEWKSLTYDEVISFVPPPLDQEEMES
# Mitogen-activated protein kinase 3 (Homo sapiens), sequence (P27361 whole entry, the tested form may be a part): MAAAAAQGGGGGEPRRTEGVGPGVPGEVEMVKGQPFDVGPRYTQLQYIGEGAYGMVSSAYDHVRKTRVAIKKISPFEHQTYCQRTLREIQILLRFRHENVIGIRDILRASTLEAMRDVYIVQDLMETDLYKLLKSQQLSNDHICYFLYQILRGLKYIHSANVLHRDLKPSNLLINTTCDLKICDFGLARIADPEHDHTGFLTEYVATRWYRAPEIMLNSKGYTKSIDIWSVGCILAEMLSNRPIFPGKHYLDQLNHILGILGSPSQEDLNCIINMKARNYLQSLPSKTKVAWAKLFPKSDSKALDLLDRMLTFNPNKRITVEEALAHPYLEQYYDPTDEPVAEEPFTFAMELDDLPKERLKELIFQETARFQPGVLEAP
# Mitogen-activated protein kinase 9 (Homo sapiens), sequence (P45984 whole entry, looked up, the tested form may be a part): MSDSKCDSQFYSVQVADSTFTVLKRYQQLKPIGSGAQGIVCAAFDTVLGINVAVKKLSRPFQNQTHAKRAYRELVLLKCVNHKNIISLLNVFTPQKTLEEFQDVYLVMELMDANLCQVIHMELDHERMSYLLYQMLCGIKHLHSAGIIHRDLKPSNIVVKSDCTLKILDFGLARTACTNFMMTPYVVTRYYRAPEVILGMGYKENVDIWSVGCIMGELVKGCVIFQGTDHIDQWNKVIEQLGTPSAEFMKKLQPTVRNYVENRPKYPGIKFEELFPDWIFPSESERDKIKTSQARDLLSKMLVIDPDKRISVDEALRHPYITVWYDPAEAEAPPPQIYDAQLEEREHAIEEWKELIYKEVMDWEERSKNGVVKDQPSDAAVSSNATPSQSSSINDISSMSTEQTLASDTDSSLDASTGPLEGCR
structure (smiles),measurement,setting,value
O=C(/C=C/c1cccc(Cl)c1Cl)NCCNC(=O)/C=C/c1cccc(Cl)c1Cl,Activity,[1],Non-toxic
O=C(/C=C/c1cccc(Cl)c1Cl)NCCCc1ccccc1,Activity,[1],Non-toxic
CCCCNC(=O)/C=C/c1ccc(OC)cc1OC,Activity,[1],Non-toxic
COc1ccc(/C=C/C(=O)NCCc2ccccc2)c(OC)c1,Activity,[1],Non-toxic
COc1nccc(-c2c(-c3ccc(F)cc3)ncn2[C@H]2CC[C@H](O)CC2)n1,inhibition,[2],inactive
CCCCNC(=O)/C=C/c1cccc(Cl)c1Cl,Activity,[1],Non-toxic
COc1ccc(CNC(=O)/C=C/c2cccc(Cl)c2Cl)cc1OC,Activity,[3],inactive
same,Activity,[1],Non-toxic
COc1cc(/C=C/C(=O)NCc2ccc(Cl)cc2)ccc1O,Activity,[1],Non-toxic
COc1cc(/C=C/C(=O)N2CCOCC2)ccc1O,Activity,[1],Non-toxic
COc1ccc(/C=C/C(=O)NCc2ccc(F)cc2)c(OC)c1,Activity,[1],Non-toxic
COc1cc(/C=C/C(=O)NCc2ccc(OC)c(OC)c2)ccc1O,Activity,[1],Non-toxic
COc1ccc(CCNC(=O)/C=C/c2cccc(Cl)c2Cl)cc1,Activity,[1],Non-toxic
COc1cc(/C=C/C(=O)NCCc2ccccc2)ccc1O,Activity,[1],Non-toxic
COc1ccc(/C=C/C(=O)NCc2ccccc2)c(OC)c1,Activity,[1],Non-toxic
COc1cc(/C=C/C(=O)NCCCCCCNC(=O)/C=C/c2ccc(O)c(OC)c2)ccc1O,Activity,[1],Non-toxic
COc1ccc(/C=C/C(=O)NCCNC(=O)/C=C/c2ccc(OC)cc2OC)c(OC)c1,Cmax,[4],550 ng/mL
same,Cmax,[5],40 ng/mL
same,inhibition,[6],inactive
same,inhibition,Mus musculus [7],Active
same,inhibition,Mus musculus [8],Active
same,inhibition,Mus musculus [9],Active
same,inhibition,[10],inactive
same,inhibition,Mus musculus [11],Active
same,inhibition,Mus musculus [12],Active
same,Activity,[13],inactive
same,inhibition,Mus musculus [14],Active
same,Cmax,[15],270 ng/mL
same,survival at 10 mg/kg,Mus musculus [16],100%
same,inhibition,Mus musculus [17],Active
same,inhibition,[18],inactive
same,inhibition,[19],inactive
same,inhibition,Mus musculus [20],Active
same,inhibition,Mus musculus [21],Active
same,inhibition,Mus musculus [22],Active
same,inhibition,[23],inactive
same,inhibition,[24],inactive
same,inhibition,Mus musculus [25],Active
same,Activity,[1],Non-toxic
same,inhibition,Mus musculus [26],Active
same,inhibition,Mus musculus [27],Active
same,inhibition,Mus musculus [28],Active
same,Cmax,[29],40 ng/mL
same,inhibition,[30],inactive
COc1cc(/C=C/C(=O)NCc2ccc(F)cc2)ccc1O,Activity,[1],Non-toxic

# — ChEMBL document CHEMBL3784925, “Discovery of a New Inhibitor of Myeloid Differentiation 2 from Cinnamamide Derivatives with Anti-Inflammatory Activity in Sepsis and Acute Lung Injury” (J Med Chem, 2016)
